Data from patent US10597388B2, “Pyridazinone herbicides” (FMC CORPORATION, priority 2014, dated 2020).

What was measured:
Assay in all cases: Test D controlled growth environment herbicide test, pre- and postemergence
Format in all cases: in vivo
[1] = test system: Russian thistle (Salsola kali)
Outline: (§1)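 Rating is visual, 0–100 scale (100 = complete control), made against untreated plants 14–21 d after treatment in controlled growth conditions. Postemergence sprays went onto 1- to 4-leaf plants in peat medium; preemergence sprays onto silt loam after sowing; formulation included a surfactant.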

[2] = test system: blackgrass (Alopecurus myosuroides)
Outline: as §1

[3] = test system: chickweed (common chickweed, Stellaria media)
Outline: as §1

[4] = test system: deadnettle (henbit deadnettle, Lamium amplexicaule)
Outline: as §1

[5] = test system: field poppy (Papaver rhoeas)
Outline: as §1

[6] = test system: field violet (Viola arvensis)
Outline: as §1

[7] = test system: oilseed rape (Brassica napus)
Outline: as §1

[8] = test system: pigweed (Amaranthus retroflexus)
Outline: as §1

[9] = test system: radish, wild (wild radish, Raphanus raphanistrum)
Outline: as §1

[10] = test system: ryegrass, Italian (Italian ryegrass, Lolium multiflorum)
Outline: as §1

[11] = test system: wheat, spring (spring wheat, Triticum aestivum)
Outline: as §1

[12] = test system: wheat, winter (winter wheat, Triticum aestivum)
Outline: as §1

[13] = test system: windgrass (Apera spica-venti)
Outline: as §1

[14] = Postemergence, 31 g ai/ha, scale 0 to 100 (0 no effect, 100 complete control)
[15] = Postemergence, 125 g ai/ha, visual rating on scale 0 (no effect) to 100 (complete control), 14 to 21 d
[16] = Postemergence, 250 g ai/ha, scale 0 to 100 (0 no effect, 100 complete control)
[17] = Preemergence, 62 g ai/ha, scale 0 to 100 (0 no effect, 100 complete control)
[18] = Preemergence, 125 g ai/ha, scale 0 to 100 (0 no effect, 100 complete control)
[19] = Preemergence, 250 g ai/ha, scale 0 to 100 (0 no effect, 100 complete control)
[20] = postemergence, 62 g ai/ha, scale 0 to 100, 0 no effect, 100 complete control

Cc1cc(C)c2sc(C)c(-c3c(OC(=O)OC(C)C)c(C)nn(C)c3=O)c2c1 [Compound 67]
Russian Thistle plant response rating [1, 14]: 55 | Plant response rating, Russian Thistle [1, 15]: 75 | Plant response rating, Russian Thistle [1, 16]: 85 | Plant response rating (scale of 0 to 100), Russian Thistle ([1]; Preemergence, 31 g ai/ha): 0 | Plant response rating, Russian Thistle [1, 17]: 0 | Plant response rating, Russian Thistle [1, 18]: 0 | Plant response rating, Russian Thistle [1, 19]: 25 | Plant response rating, Russian Thistle [1, 20]: 60 | Blackgrass plant response rating [2, 14]: 70 | Plant response rating, Blackgrass [2, 15]: 85 | Plant response rating, Blackgrass [2, 16]: 95 | Plant response rating (scale of 0 to 100), Blackgrass ([2]; Preemergence, 31 g ai/ha): 75 | Plant response rating, Blackgrass [2, 17]: 75 | Plant response rating, Blackgrass [2, 18]: 75 | Plant response rating, Blackgrass [2, 19]: 80 | Plant response rating, Blackgrass [2, 20]: 75 | Chickweed plant response rating [3, 14]: 85 | Plant response rating, Chickweed [3, 15]: 100 | Plant response rating, Chickweed [3, 16]: 100 | Plant response rating (scale of 0 to 100), Chickweed ([3]; Preemergence, 31 g ai/ha): 100 | Plant response rating, Chickweed [3, 17]: 100 | Plant response rating, Chickweed [3, 18]: 100 | Plant response rating, Chickweed [3, 19]: 100 | Plant response rating, Chickweed [3, 20]: 100 | Deadnettle plant response rating [4, 14]: 40 | Plant response rating, Deadnettle [4, 15]: 40 | Plant response rating, Deadnettle [4, 16]: 60 | Plant response rating (scale of 0 to 100), Deadnettle ([4]; Preemergence, 31 g ai/ha): 15 | Plant response rating, Deadnettle [4, 17]: 30 | Plant response rating, Deadnettle [4, 18]: 55 | Plant response rating, Deadnettle [4, 19]: 60 | Plant response rating, Deadnettle [4, 20]: 30 | Field Poppy plant response rating [5, 14]: 80 | Plant response rating, Field Poppy [5, 15]: 100 | Plant response rating, Field Poppy [5, 16]: 100 | Plant response rating (scale of 0 to 100), Field Poppy ([5]; Preemergence, 31 g ai/ha): 100 | Plant response rating, Field Poppy [5, 17]: 100 | Plant response rating, Field Poppy [5, 18]: 100 | Plant response rating, Field Poppy [5, 19]: 100 | Plant response rating, Field Poppy [5, 20]: 100 | Field Violet plant response rating [6, 14]: 80 | Plant response rating, Field Violet [6, 15]: 90 | Plant response rating, Field Violet [6, 16]: 95 | Plant response rating (scale of 0 to 100), Field Violet ([6]; Preemergence, 31 g ai/ha): 85 | Plant response rating, Field Violet [6, 17]: 98 | Plant response rating, Field Violet [6, 18]: 100 | Plant response rating, Field Violet [6, 19]: 100 | Plant response rating, Field Violet [6, 20]: 80 | Oilseed Rape plant response rating [7, 14]: 70 | Plant response rating, Oilseed Rape [7, 15]: 85 | Plant response rating, Oilseed Rape [7, 16]: 90 | Plant response rating (scale of 0 to 100), Oilseed Rape ([7]; Preemergence, 31 g ai/ha): 10 | Plant response rating, Oilseed Rape [7, 17]: 20 | Plant response rating, Oilseed Rape [7, 18]: 25 | Plant response rating, Oilseed Rape [7, 19]: 25 | Plant response rating, Oilseed Rape [7, 20]: 80 | Pigweed plant response rating [8, 14]: 75 | Plant response rating, Pigweed [8, 15]: 85 | Plant response rating, Pigweed [8, 16]: 100 | Plant response rating (scale of 0 to 100), Pigweed ([8]; Preemergence, 31 g ai/ha): 35 | Plant response rating, Pigweed [8, 17]: 95 | Plant response rating, Pigweed [8, 18]: 100 | Plant response rating, Pigweed [8, 19]: 100 | Plant response rating, Pigweed [8, 20]: 80 | Radish, Wild plant response rating [9, 14]: 55 | Plant response rating, Radish, Wild [9, 15]: 70 | Plant response rating, Radish, Wild [9, 16]: 95 | Plant response rating (scale of 0 to 100), Radish, Wild ([9]; Preemergence, 31 g ai/ha): 25 | Plant response rating, Radish, Wild [9, 17]: 60 | Plant response rating, Radish, Wild [9, 18]: 75 | Plant response rating, Radish, Wild [9, 19]: 95 | Plant response rating, Radish, Wild [9, 20]: 65 | Ryegrass, Italian plant response rating [10, 14]: 85 | Plant response rating, Ryegrass, Italian [10, 15]: 98 | Plant response rating, Ryegrass, Italian [10, 16]: 100 | Plant response rating (scale of 0 to 100), Ryegrass, Italian ([10]; Preemergence, 31 g ai/ha): 75 | Plant response rating, Ryegrass, Italian [10, 17]: 80 | Plant response rating, Ryegrass, Italian [10, 18]: 85 | Plant response rating, Ryegrass, Italian [10, 19]: 90 | Plant response rating, Ryegrass, Italian [10, 20]: 90 | Wheat, Spring plant response rating [11, 14]: 0 | Plant response rating, Wheat, Spring [11, 15]: 0 | Plant response rating, Wheat, Spring [11, 16]: 5 | Plant response rating (scale of 0 to 100), Wheat, Spring ([11]; Preemergence, 31 g ai/ha): 0 | Plant response rating, Wheat, Spring [11, 17]: 0 | Plant response rating, Wheat, Spring [11, 18]: 0 | Plant response rating, Wheat, Spring [11, 19]: 10 | Plant response rating, Wheat, Spring [11, 20]: 0 | Wheat, Winter plant response rating [12, 14]: 0 | Plant response rating, Wheat, Winter [12, 15]: 0 | Plant response rating, Wheat, Winter [12, 16]: 0 | Plant response rating (scale of 0 to 100), Wheat, Winter ([12]; Preemergence, 31 g ai/ha): 0 | Plant response rating, Wheat, Winter [12, 17]: 0 | Plant response rating, Wheat, Winter [12, 18]: 0 | Plant response rating, Wheat, Winter [12, 19]: 5 | Plant response rating, Wheat, Winter [12, 20]: 0 | Windgrass plant response rating [13, 14]: 85 | Plant response rating, Windgrass [13, 15]: 90 | Plant response rating, Windgrass [13, 16]: 90 | Plant response rating (scale of 0 to 100), Windgrass ([13]; Preemergence, 31 g ai/ha): 30 | Plant response rating, Windgrass [13, 17]: 75 | Plant response rating, Windgrass [13, 18]: 80 | Plant response rating, Windgrass [13, 19]: 95 | Plant response rating, Windgrass [13, 20]: 85
